From patent US9636418B2 (priority 2013, dated 2017) come the findings set out here.

Experiment in all cases: cell-based
The target of experiment [1] is T1, hNav1.4 (Homo sapiens, UniProt P35499). The conditions noted are these: for pIC50: IonWorks Quattro, read-out: IC50 Nav1.4; for Nav1.4/Nav1.7: ratio of IonWorks Quattro IC50 values. On the technique in general: In patch-clamp work, channel activity is measured electrically.
For experiment [2], the target named is T2, hNav1.7 (Homo sapiens, UniProt Q15858). The conditions noted are these: IonWorks Quattro; read-out: IC50 Nav1.7.
Experiment [3] has as its target T1, hNav1.4. The note with it: for pIC50: PatchXpress, * = at high concentrations compound would wash off slowly or not at all, read-out: PX hNav1.4 Tonic IC50.
Experiment [4] has as its target T3, hNav1.5 (Homo sapiens, UniProt Q14524). The note with it: PatchXpress; * = at high concentrations compound would wash off slowly or not at all; read-out: PX hNav1.5 Tonic IC50.
The target of experiment [5] is T3, hNav1.5. The note with it: IonWorks Quattro; read-out: IC50 Nav1.5.
Experiment [6] concerns the target hNav1.3 (Homo sapiens, UniProt Q9NY46). The conditions noted are these: IonWorks Quattro; read-out: IC50 Nav1.3.
The target in experiment [7] is T2, hNav1.7. Format: cell-based. The note with it: PatchXpress; * = at high concentrations compound would wash off slowly or not at all; read-out: PX hNav1.7 Tonic IC50.

pIC50: −log10 of the molar value. Several values for one entry are separate records, joined by “and”; a condition that tells them apart may be missing. Identical values can stand only once. Like-named read-outs stand apart in the source and are kept apart here.

In general, pIC50 refers to the IC50 on a negative log10 scale, so that one unit is a factor of ten.

Chain of hNav1.3 (Q9NY46 whole entry): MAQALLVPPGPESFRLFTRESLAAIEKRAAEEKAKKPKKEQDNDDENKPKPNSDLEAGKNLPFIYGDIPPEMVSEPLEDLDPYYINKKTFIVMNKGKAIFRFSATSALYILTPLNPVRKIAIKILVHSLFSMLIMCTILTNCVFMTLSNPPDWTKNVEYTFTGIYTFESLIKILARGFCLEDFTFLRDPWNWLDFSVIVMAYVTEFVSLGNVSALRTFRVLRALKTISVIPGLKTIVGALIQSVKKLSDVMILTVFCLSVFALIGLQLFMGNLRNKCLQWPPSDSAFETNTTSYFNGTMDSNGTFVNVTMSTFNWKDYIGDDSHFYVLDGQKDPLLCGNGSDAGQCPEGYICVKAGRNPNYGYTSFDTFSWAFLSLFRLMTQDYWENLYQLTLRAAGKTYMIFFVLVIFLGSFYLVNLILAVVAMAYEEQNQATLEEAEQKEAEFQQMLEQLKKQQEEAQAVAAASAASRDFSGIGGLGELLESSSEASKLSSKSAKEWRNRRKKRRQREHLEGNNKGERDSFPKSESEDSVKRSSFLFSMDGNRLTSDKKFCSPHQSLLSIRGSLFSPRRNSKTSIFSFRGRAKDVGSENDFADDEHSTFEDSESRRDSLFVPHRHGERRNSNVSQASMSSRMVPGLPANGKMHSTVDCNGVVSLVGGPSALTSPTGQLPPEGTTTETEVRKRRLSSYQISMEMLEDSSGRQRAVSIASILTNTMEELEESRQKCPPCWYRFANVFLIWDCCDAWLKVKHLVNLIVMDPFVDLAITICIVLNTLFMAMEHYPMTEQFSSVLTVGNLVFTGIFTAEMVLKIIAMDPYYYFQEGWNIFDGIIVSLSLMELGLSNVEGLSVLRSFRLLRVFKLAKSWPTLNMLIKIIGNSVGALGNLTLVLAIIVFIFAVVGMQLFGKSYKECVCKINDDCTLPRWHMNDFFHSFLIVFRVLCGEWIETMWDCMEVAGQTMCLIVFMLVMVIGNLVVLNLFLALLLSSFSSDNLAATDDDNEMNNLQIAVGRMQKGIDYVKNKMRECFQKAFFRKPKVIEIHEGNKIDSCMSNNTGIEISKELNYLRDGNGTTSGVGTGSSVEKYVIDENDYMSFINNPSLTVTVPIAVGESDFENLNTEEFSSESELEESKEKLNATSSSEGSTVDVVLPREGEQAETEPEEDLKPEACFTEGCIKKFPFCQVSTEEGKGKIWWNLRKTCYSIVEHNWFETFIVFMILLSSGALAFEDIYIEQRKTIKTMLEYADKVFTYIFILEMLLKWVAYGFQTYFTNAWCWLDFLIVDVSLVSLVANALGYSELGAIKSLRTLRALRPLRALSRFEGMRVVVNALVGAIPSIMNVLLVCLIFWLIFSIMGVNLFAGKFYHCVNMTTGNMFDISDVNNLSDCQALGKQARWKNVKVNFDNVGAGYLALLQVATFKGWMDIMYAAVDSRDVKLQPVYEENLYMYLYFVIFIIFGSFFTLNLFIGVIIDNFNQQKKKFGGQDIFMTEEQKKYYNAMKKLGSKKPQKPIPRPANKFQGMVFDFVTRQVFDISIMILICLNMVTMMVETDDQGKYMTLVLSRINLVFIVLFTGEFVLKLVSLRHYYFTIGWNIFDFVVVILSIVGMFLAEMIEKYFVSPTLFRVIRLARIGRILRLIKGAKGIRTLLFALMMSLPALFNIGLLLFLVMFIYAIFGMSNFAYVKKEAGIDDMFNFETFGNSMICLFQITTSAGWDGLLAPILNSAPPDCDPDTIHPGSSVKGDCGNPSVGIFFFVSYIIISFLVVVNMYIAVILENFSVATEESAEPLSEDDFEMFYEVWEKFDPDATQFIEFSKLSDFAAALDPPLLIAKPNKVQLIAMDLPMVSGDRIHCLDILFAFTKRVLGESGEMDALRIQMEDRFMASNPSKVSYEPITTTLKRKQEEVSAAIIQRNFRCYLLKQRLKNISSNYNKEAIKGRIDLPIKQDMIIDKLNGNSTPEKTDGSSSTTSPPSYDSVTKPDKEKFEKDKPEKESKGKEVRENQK
T1 sequence (P35499 whole entry): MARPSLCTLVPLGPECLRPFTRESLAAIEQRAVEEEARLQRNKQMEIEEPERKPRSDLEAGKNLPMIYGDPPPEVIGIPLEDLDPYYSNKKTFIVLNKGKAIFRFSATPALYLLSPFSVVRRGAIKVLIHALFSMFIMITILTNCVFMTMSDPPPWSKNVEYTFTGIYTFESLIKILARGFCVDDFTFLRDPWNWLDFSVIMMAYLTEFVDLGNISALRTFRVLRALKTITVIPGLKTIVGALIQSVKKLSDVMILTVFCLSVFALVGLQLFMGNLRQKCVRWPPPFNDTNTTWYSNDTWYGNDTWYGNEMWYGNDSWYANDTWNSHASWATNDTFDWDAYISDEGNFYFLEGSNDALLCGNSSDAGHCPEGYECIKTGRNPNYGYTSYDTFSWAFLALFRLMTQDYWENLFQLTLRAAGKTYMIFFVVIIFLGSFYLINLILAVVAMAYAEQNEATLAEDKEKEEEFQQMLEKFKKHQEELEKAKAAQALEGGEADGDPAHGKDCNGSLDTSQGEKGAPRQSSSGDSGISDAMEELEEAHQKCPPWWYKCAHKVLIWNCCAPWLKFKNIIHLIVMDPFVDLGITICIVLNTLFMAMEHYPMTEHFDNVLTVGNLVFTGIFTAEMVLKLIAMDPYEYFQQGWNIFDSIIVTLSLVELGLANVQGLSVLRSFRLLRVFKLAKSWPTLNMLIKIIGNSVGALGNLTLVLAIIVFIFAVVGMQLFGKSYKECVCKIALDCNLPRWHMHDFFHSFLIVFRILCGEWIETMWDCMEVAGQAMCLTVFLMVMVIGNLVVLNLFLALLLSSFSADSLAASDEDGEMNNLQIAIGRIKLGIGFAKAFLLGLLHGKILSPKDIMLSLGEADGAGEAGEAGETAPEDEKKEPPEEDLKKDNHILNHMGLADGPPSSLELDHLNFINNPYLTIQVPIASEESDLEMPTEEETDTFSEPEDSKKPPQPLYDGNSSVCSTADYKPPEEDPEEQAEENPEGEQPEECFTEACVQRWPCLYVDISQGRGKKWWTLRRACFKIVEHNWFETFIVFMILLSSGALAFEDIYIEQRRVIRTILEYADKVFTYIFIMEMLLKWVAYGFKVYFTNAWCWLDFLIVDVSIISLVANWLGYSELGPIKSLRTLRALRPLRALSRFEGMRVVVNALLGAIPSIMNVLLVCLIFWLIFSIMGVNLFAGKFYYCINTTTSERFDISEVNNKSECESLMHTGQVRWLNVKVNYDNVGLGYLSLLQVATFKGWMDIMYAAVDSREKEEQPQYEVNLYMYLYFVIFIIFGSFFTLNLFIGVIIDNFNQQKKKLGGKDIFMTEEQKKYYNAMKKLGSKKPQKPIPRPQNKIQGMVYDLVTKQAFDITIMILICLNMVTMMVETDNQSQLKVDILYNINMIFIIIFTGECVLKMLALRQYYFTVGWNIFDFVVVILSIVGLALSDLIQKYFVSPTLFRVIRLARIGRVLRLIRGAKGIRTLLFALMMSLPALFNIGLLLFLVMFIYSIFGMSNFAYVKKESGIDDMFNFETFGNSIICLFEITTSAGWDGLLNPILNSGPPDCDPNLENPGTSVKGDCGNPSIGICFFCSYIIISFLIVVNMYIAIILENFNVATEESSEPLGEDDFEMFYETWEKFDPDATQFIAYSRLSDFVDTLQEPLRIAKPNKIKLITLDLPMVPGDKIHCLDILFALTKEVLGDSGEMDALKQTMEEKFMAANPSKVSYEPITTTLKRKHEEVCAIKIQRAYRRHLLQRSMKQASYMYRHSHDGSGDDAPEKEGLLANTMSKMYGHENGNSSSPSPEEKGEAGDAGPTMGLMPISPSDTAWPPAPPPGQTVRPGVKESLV

With `CC[C@H](C)[C@H](NC(=O)[C@H](Cc1ccc(O)cc1)NC(=O)[C@H](CCCCN)NC(=O)[C@H](CCCNC(=N)N)NC(=O)[C@@H]1CSSC[C@@H]2NC(=O)[C@H](C)NC(=O)[C@H](CCCNC(=N)N)NC(=O)[C@H](CCCCN)NC(=O)[C@H](CO)NC(=O)[C@H](CC(=O)O)NC(=O)[C@@H]3CSSC[C@H](NC(=O)[C@H](CCC(=O)O)NC(=O)[C@H](CC(C)C)NC(=O)CNC(=O)[C@H](CCC(=O)O)NC(=O)[C@H](CSSC[C@H](NC(=O)[C@@H](N)Cc4ccc(O)cc4)C(=O)N[C@@H](CCC(N)=O)C(=O)N[C@@H](CCCCN)C(=O)N[C@@H](Cc4c[nH]c5ccccc45)C(=O)N[C@@H](CCSC)C(=O)N[C@@H](Cc4c[nH]c5ccccc45)C(=O)N[C@@H]([C@@H](C)O)C(=O)N3)NC2=O)C(=O)N[C@@H](CCCCN)C(=O)N[C@@H](CC(C)C)C(=O)N[C@@H](Cc2c[nH]c3ccccc23)C(=O)N1)C(N)=O` [compound 137], the pIC50 was less than 5.46 in experiment [1]; 7.05 in experiment [2]; 5.90 in experiment [3]; 4.94 in experiment [4]; 5.10 in experiment [5]; 5.70 in experiment [6]. Besides, the pIC50 in experiment [7] is 9.05. Further, the Nav1.4/Nav1.7 in experiment [1] was determined as 41.
As for `CC[C@H](C)[C@H](NC(=O)[C@H](Cc1ccc(O)cc1)NC(=O)[C@H](CCCCN)NC(=O)[C@H](CCCNC(=N)N)NC(=O)[C@@H]1CSSC[C@@H]2NC(=O)[C@H](C)NC(=O)[C@H](CCCNC(=N)N)NC(=O)[C@H](CCCCN)NC(=O)[C@H](CO)NC(=O)[C@H](CC(=O)O)NC(=O)[C@@H]3CSSC[C@H](NC(=O)[C@H](CCC(=O)O)NC(=O)[C@H](CC(C)C)NC(=O)CNC(=O)[C@H](CCC(=O)O)NC(=O)[C@H](CSSC[C@H](NC(=O)[C@@H](N)Cc4ccc(O)cc4)C(=O)N[C@@H](CCC(N)=O)C(=O)N[C@@H](CCCCN)C(=O)N[C@@H](Cc4ccc(I)cc4)C(=O)N[C@@H](CCSC)C(=O)N[C@@H](Cc4c[nH]c5ccccc45)C(=O)N[C@@H]([C@@H](C)O)C(=O)N3)NC2=O)C(=O)N[C@@H](CCCCN)C(=O)N[C@@H](CC(C)C)C(=O)N[C@@H](Cc2c[nH]c3ccccc23)C(=O)N1)C(N)=O` [compound 192], the pIC50 in experiment [1] is 5.47; in experiment [2] it was 6.96; in experiment [3], 6.76; in experiment [4] it was less than 6.00; in experiment [5] it was less than 5.30; in experiment [6], 5.89. In experiment [7], the pIC50 was 8.66. Further, the Nav1.4/Nav1.7 in experiment [1] came out at 30; in experiment [3] (ratio of PX IC50 values) it was 78.
On to `CC[C@H](C)[C@H](NC(=O)[C@H](Cc1ccc(O)cc1)NC(=O)[C@H](CCCCN)NC(=O)[C@H](CCCNC(=N)N)NC(=O)[C@@H]1CSSC[C@@H]2NC(=O)[C@H](C)NC(=O)[C@H](CCCNC(=N)N)NC(=O)[C@H](CCCCN)NC(=O)[C@H](CO)NC(=O)[C@H](CC(=O)O)NC(=O)[C@@H]3CSSC[C@H](NC(=O)[C@H](CCC(=O)O)NC(=O)[C@H](CC(C)C)NC(=O)CNC(=O)[C@H](CCC(=O)O)NC(=O)[C@H](CSSC[C@H](NC(=O)[C@@H](N)Cc4ccc(O)cc4)C(=O)N[C@@H](CCC(N)=O)C(=O)N[C@@H](CCCCN)C(=O)N[C@@H](Cc4ccccc4)C(=O)N[C@@H](CCSC)C(=O)N[C@@H](Cc4c[nH]c5ccccc45)C(=O)N[C@@H]([C@@H](C)O)C(=O)N3)NC2=O)C(=O)N[C@@H](CCCCN)C(=O)N[C@@H](CC(C)C)C(=O)N[C@@H](Cc2c[nH]c3ccccc23)C(=O)N1)C(N)=O` [compound 193], for which the pIC50 in experiment [1] was less than 5.30; in experiment [2], 6.80 and 6.64; in experiment [3], 6.00; in experiment [4], less than 6.00; in experiment [5], less than 5.30; in experiment [6] it was less than 5.30. For the same compound, the pIC50 in experiment [7] is 8.34.
